This assay relates to 282377-053-R-J1-PDC complex spheroids, viability. Put plainly: Anticancer human tumor 282377-053-R-J1-PDC patient-derived colon adenocarcinoma cell line growth inhibition [GQUAD]. Particulars: for viability, T/C: stronger effect = lower value. From the text: DNA G-quadruplex Stabilizer Agents in Combinations in Complex Spheroids
A high-throughput screen of multi-cell type tumor spheroids was designed to identify active combinations of DNA G-quadruplex stabilizer agents and targeted small molecules. Complex spheroids include a stromal component modeled by human endothelial cells (HUVEC) and fibroblasts modeled by human mesenchymal stem cells (MSCs). The concentration ranges selected for each drug and investigational agent were based upon clinically achievable concentrations if the clinical Cmax of the agent was known.
Compounds. The drugs and investigational agents: pidnarulex (CX-5461; NSC782164), APTO-253 (NSC789042), BRACO-19 (NSC847499), peposertib (NSC802822), ceralasertib (NSC780249), elimusertib (NSC800525), camonsertib (NSC841442), AZD-1390 (NSC803789), olaparib (NSC753686), talazoparib (NSC767125), ART-558 (NSC835418), sotorasib (NSC818433), MRTX-1133 (NSC836407), SN-38 (NSC673596), topotecan (NSC609699), etoposide (NSC141540), doxorubicin (NSC123127), gemcitabine (NSC613327), 5-fluorouracil (NSC19893), paclitaxel (NSC125973), vemurafenib (NSC761431), panobinostat (NSC761190), R-306465 (JNJ-16241199; NSC773264), adavosertib (NSC754352), TP-3654 (NSC805149), carboplatin (NSC241240), KSQ-4279 (NSC840948), and staurosporine (NSC755774) were obtained from the National Cancer Institute (NCI) Developmental Therapeutics Program Chemical Repository (34). The FDA-approved anticancer drug set is available from the NCI Developmental Therapeutics Program. […] The stock solutions were prepared in dimethyl sulfoxide (DMSO, Sigma-Aldrich, St. Louis, MO, cat. D2650) at 800-fold the tested concentration and stored at -70 degrees C prior to their use. All drugs and investigational agents were tested over a range starting from a high concentration at or near the clinical Cmax and decreasing in half-log increments. If the clinical Cmax for an agent had not been determined, the highest concentration tested was 10 microM.
2.3 Cell Culture. All cells were maintained in an incubator at 37 degrees C and 5% CO2 with 95% humidity. The PDC lines were cultured according to standard operating procedures established by the NCI PDMR. All PDCs were thawed and cultured in Matrigel-coated flasks prepared with a working solution of 1X Ham's F-12 nutrient mix, without supplementation (Invitrogen, cat. 11765054), 100 U/mL penicillin-streptomycin (Invitrogen, cat. 15140122), and 2.5% Matrigel (Corning Inc., cat. 354248) for the first three passages. The 857933-349-R-J2-PDC line was cultured in 6C/Colon 1B media, which includes advanced DMEM/F-12 (Thermo Fisher Scientific, cat. 12634028), 10 mM HEPES (Thermo Fisher Scientific, cat. 15630080), 1X GlutaMAX supplement (Thermo Fisher Scientific, cat. 35050061), 0.1 mg/mL primocin (InvivoGen, cat. ant-pm-2), 10% defined fetal bovine serum, heat inactivated (HyClone Laboratories Inc., cat. SH30070.03HI), 50% L-WRN conditioned media (ATCC, cat. CRL-3276), 1.25 mM N-Acetyl-L-cysteine (Sigma-Aldrich, cat. A9165), 10 mM nicotinamide (Sigma-Aldrich, cat. N0636), 1X B-27 supplement (Thermo Fisher Scientific, cat. 17504044), 1X N-2 supplement (Thermo Fisher Scientific, cat. 17502048), 10 microM Y-27632 dihydrochloride (Tocris Bioscience, cat. 1254), and 50 ng/mL human EGF recombinant protein (Thermo Fisher Scientific, cat. PHG0311). The 485176-168-R4-J1-PDC line was cultured in Panc media, which includes all 6C/Colon 1B media components plus 100 ng/mL human FGF-10 (Thermo Fisher Scientific, cat. 100-26), 500 nM SB-431542 (Selleckchem, cat. S1067), and gastrin (Tocris, cat. 3006).
[…]

Each structure is given as a SMILES string. Values joined by “and” are separate entries in the source; they are usually repeats but may differ in a detail not shown here. Identical values can stand only once.
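Further: spheroids exposed to compounds for 7 days before readout.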
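Wherever viability, T/C is given: percent of vehicle DMSO control viability with 100% = untreated-like growth.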

For `COc1cc(C2c3cc4c(cc3C(OC3OC5COC(C)OC5C(O)C3O)C3COC(=O)C23)OCO4)cc(OC)c1O` (stereo unspecified), the viability, T/C by setting is: (compound 0.0316 µM) 111% and 82.8% and 104%; (compound 0.1 µM) 90.5% and 97% and 92.2%; (compound 0.316 µM) 111% and 90.5% and 98.7%; (compound 1 µM) 99.6% and 110% and 104%; (compound 3.16 µM) 61.1% and 67.3% and 96.7%; (compound 10 µM) 56.5% and 50% and 72.2%. Under “curve of compound”, the 50% inhibitory concentration (IC50) was above 10000 nM.
On to `COc1ccc([C@@H](O)c2cc(-c3ncnc4cc(N5CCOCC5)ccc34)c(F)cc2Cl)nn1`, for which the viability, T/C reads like this: (compound 0.0316 µM) 86.5% and 96.3% and 89.9%; (compound 0.1 µM) 85.6% and 80.6% and 90.8%; (compound 0.316 µM) 74.5% and 109% and 86.2%; (compound 1 µM) 67.9% and 79.6% and 93.6%; (compound 3.16 µM) 68.9% and 82.5% and 101%; (compound 10 µM) 57.6% and 61.8% and 71.7%. In addition, for the setting “curve of compound”, the 50% inhibitory concentration (IC50) is above 10000 nM.
On to `COc1cccc2c1C(=O)c1c(O)c3c(c(O)c1C2=O)CC(O)(C(=O)CO)CC3OC1CC(N)C(O)C(C)O1` (stereo unspecified), for which the viability, T/C by setting is: (compound 0.0316 µM) 109% and 108% and 110%; (compound 0.1 µM) 110% and 102% and 101%; (compound 0.316 µM) 92.8% and 109% and 77.7%; (compound 1 µM) 54.2% and 77.3% and 56%; (compound 3.16 µM) 15.7% and 29.5% and 13.9%; (compound 10 µM) 1.35% and 2.21% and 0.95%. For the setting “curve of compound”, the IC50 was 1130 nM and 1940 nM and 1010 nM.
Take `Cc1[nH]c2ccc(F)cc2c1-c1nc2c3cccnc3c3ncccc3c2[nH]1`: the viability, T/C (compound 0.0316 µM) is 91.7% [middle of 12 runs]. Also, the half-inhibitory concentration (IC50) reads like this: (compound alone, run of 04/16/2024) > 10000 nM and 8360 nM and 8060 nM; (compound alone, run of 04/22/2024) > 10000 nM and 9040 nM and 7370 nM.
Consider `Cc1[nH]c2ccccc2c1CCNCc1ccc(/C=C/C(=O)NO)cc1`, for which the viability, T/C runs as follows: (compound 0.000999 µM) 108% and 110% and 106%; (compound 0.00316 µM) 88.2% and 101% and 95.5%; (compound 0.00999 µM) 84.7% and 96.6% and 98.5%; (compound 0.0316 µM) 97.4% and 118% and 105%; (compound 0.0999 µM) 115% and 98.6% and 72.2%. The half-inhibitory concentration (IC50) (curve of compound) is > 316 nM and 185 nM and 145 nM.
Regarding `Cc1cccc(N(C)C(=O)C2C(O)CCN2c2nc(C)cc(C(F)(F)F)c2C#N)c1` (stereo unspecified), the viability, T/C was 121% and 97.5% and 105% (compound 0.0316 µM); 83% and 85.8% and 99.7% (compound 0.1 µM); 103% and 89.3% and 99.5% (compound 0.316 µM); 89.3% and 97.7% and 105% (compound 1 µM); 98.2% and 99.2% and 94.4% (compound 3.16 µM); 80.9% and 80.7% and 90.8% (compound 10 µM). Further, the IC50 (curve of compound) was above 10000 nM.
Consider `Cn1ncnc1[C@H]1c2n[nH]c(=O)c3cc(F)cc(c23)N[C@@H]1c1ccc(F)cc1`, for which the viability, T/C was 109% and 105% and 89.3% (compound 0.000999 µM); 106% and 88.2% and 91.4% (compound 0.00316 µM); 106% and 94.9% and 99.7% (compound 0.00999 µM); 85% and 109% and 106% (compound 0.0316 µM); 106% and 97.6% and 113% (compound 0.0999 µM); 96.5% and 113% and 105% (compound 0.316 µM). Also, the concentration for half-maximal inhibition (IC50) (curve of compound) is above 316 nM.
`Nc1ccn(C2OC(CO)C(O)C2(F)F)c(=O)n1` (stereo unspecified): the viability, T/C by setting is: (compound 0.0316 µM) 97% and 108% and 101%; (compound 0.1 µM) 76% and 78.1% and 78.7%; (compound 0.316 µM) 37.7% and 50.4% and 35.4%; (compound 1 µM) 34.4% (2×) and 26.7%; (compound 3.16 µM) 25.4% and 37.8% and 20.9%; (compound 10 µM) 18.3% and 20.1% and 17.3%. Further, the IC50 (curve of compound) was 235 nM and 382 nM and 219 nM.
For `O=C(NO)c1cnc(N2CCN(S(=O)(=O)c3ccc4ccccc4c3)CC2)nc1`, the viability, T/C (compound 0.0316 µM) is 58.1% and 117% and 100%; the viability, T/C (compound 0.1 µM) is 20% and 107% and 82%; the viability, T/C (compound 0.316 µM) is 22.4% and 79.1% and 64.8%; the viability, T/C (compound 1 µM) is 21.8% and 2.34% and 0.84%; the viability, T/C (compound 3.16 µM) was 24.6% and 0.24% and 0.11%; the viability, T/C (compound 10 µM) is 25.1% and 0.26% and 0.18%.
For `O=C(c1cc(Cc2n[nH]c(=O)c3ccccc23)ccc1F)N1CCN(C(=O)C2CC2)CC1`, the viability, T/C was 98.7% and 97.4% and 108% (compound 0.0316 µM); 111% and 100% and 110% (compound 0.1 µM); 100% and 98.7% and 102% (compound 0.316 µM); 93.8% and 105% and 109% (compound 1 µM); 116% and 100% and 111% (compound 3.16 µM); 106% and 82.9% and 90.7% (compound 10 µM). Further, the 50% inhibitory concentration (IC50) (curve of compound) was above 10000 nM.
For the compound `O=c1[nH]cc(F)c(=O)[nH]1`, the viability, T/C reads like this: (compound 0.0316 µM) 94.9% and 109% and 94.2%; (compound 0.1 µM) 107% (2×) and 88.7%; (compound 0.316 µM) 107% and 102% and 96.5%; (compound 1 µM) 88.8% and 92.9% and 94.9%; (compound 3.16 µM) 87.9% and 80.7% and 79.4%; (compound 10 µM) 80.8% and 69.7% and 70.6%. For the setting “curve of compound”, the 50% inhibitory concentration (IC50) is above 10000 nM.

These data come from PubChem BioAssay AID2060501 (Molecular Pharmacology Branch, DTP, NCI, 2025).
